This test has as its target T1, HCV NS3-4A protease (Hepatitis C virus genotype 1a, UniProt P27958).
T1 construct: HCV NS3-4A protease
Nature of the test: HCV NS3-4A protease assay in vitro (FRET-S substrate). The class given is biochemical. How it is done: HCV NS3-4A Protease Assay In Vitro.
The assay was conducted in Buffer A containing 30 mM NaCl, 5 mM CaCl2, 10 mM DTT, 50 mM Tris (pH7.8), using the Ac-Asp-Glu-Asp(EDANS)-Glu-Glu-Abu-ψ-[COO]-Ala-Ser-Lys (DABCYL)-NH2 (FRET-S) fluorescent peptide (AnaSpec, USA) as substrate. Briefly, 140 μL buffer A, 20 μL compounds dissolved in buffer A with different concentration and 20 μL HCV NS3-4A protease diluted in buffer A were added into 96-well plate respectively and mixed well. The reaction was initiate with adding 20 μL of FRET-S. Reactions were continuously monitored at 37° C. using a BMG Polarstar Galaxy (MTX Lab Systems, Inc. USA), with excitation and emission filters of 355 nm and 520 nm, respectively. The 50% inhibitory concentration (IC50) was calculated with Reed & Muench methods.

Where [1] appears, read: HCV NS3-4A protease inhibition, 37° C., class symbols, read-out: NS3-NS4A IC50.

Where two headings read alike, the source gives them in different places.

As usually defined, the IC50 is the midpoint of a concentration-inhibition curve.

T1 sequence (P27958 1027-1657): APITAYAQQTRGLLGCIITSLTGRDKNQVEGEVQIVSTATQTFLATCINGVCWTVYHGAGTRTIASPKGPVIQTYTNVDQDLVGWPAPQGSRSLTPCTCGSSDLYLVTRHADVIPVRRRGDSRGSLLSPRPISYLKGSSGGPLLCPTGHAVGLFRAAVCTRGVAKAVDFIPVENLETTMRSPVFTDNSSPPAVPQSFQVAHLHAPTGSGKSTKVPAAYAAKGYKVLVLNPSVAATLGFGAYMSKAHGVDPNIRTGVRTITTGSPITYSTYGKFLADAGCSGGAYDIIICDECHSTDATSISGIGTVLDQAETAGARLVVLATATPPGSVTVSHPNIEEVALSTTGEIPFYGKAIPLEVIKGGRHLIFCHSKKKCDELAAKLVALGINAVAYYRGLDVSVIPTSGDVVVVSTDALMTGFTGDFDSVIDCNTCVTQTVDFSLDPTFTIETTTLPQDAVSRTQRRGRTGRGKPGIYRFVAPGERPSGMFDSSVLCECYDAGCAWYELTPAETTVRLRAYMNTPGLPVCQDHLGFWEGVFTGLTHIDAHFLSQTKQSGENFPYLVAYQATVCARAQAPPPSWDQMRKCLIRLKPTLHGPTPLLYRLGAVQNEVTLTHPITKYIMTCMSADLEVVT
T1 sequence (P27958 1658-1711): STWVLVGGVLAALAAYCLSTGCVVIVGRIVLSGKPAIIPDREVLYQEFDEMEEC

`C=C[C@H]1C[C@@]1(NC(=O)C1C[C@@H](OC(=O)N2Cc3cc4c(cc3C2)OCCCO4)CN1C(=O)[C@@H](NC(=O)[C@@H](NC(=O)c1cnccn1)C1CCCCC1)C(C)(C)C)C(=O)NS(=O)(=O)C1CC1` (stereo partly shown) [Compound 30g] yielded an IC50 of less than 30 nM.

The compound `CC[C@H]1C[C@@]1(NC(=O)C1C[C@@H](OC(=O)N2Cc3cc4c(cc3C2)OCO4)CN1C(=O)[C@@H](NC(=O)[C@@H](NC(=O)Oc1ccccc1)C1CCCCC1)C(C)(C)C)C(=O)NS(=O)(=O)C1CC1` (stereo partly shown) [Compound 30z] showed an IC50 of less than 30 nM.

As for `CC(C)S(=O)(=O)NC(=O)[C@@]12C[C@H]1/C=C\CCCCCN(C)C(=O)N1CC(OC(=O)N3Cc4cc5c(cc4C3)OCO5)C[C@H]1C(=O)N2` (stereo partly shown) [Compound 27c], under setting [1], the IC50 fell in the range of 30 to 200 nM.

The compound `CC[C@H]1C[C@@]1(NC(=O)C1C[C@@H](OC(=O)N2Cc3cc4c(cc3C2)OCO4)CN1C(=O)[C@@H](NC(=O)[C@@H](NC(=O)NC(C)(C)C)C1CCCCC1)C(C)(C)C)C(=O)NS(=O)(=O)C1CC1` (stereo partly shown) [Compound 30ac] came in with an IC50 of less than 30 nM.

As for `CC[C@H]1C[C@@]1(NC(=O)C1C[C@@H](OC(=O)N2Cc3cc4c(cc3C2)OCO4)CN1C(=O)[C@@H](NC(=O)OC1CCCC1)C(C)(C)C)C(=O)NS(=O)(=O)C1CC1` (stereo partly shown) [Compound 30am], the IC50 under setting [1] was less than 30 nM.

As to `C=C[C@H]1C[C@@]1(NC(=O)C1C[C@@H](OC(=O)N2Cc3cccc(F)c3C2)CN1C(=O)[C@@H](NC(=O)[C@@H](NC(=O)c1cnccn1)C1CCCCC1)C(C)(C)C)C(=O)NS(=O)(=O)C1CC1` (stereo partly shown) [Compound 30k], the IC50 is less than 30 nM.

On to `CC(C)S(=O)(=O)NC(=O)[C@@]12C[C@H]1/C=C\CCCCC[C@H](NC(=O)OC(C)(C)C)C(=O)N1C[C@H](OC(=O)N3Cc4cc5c(cc4C3)OCCO5)C[C@H]1C(=O)N2` [Compound 12g], for which, under setting [1], the IC50 is less than 30 nM.

Turning to `C=C[C@H]1C[C@@]1(NC(=O)C1C[C@@H](OC(=O)N2Cc3cc4c(cc3C2)OCO4)CN1C(=O)[C@@H](NC(=O)NC(C)(C)C)C(C)(C)C)C(=O)NS(=O)(=O)C1CC1` (stereo partly shown) [Compound 30ar], the IC50 under setting [1] is less than 30 nM.

For the compound `C=C[C@H]1C[C@@]1(NC(=O)C1C[C@@H](OC(=O)N2Cc3cccc(F)c3C2)CN1C(=O)[C@@H](NC(=O)OC1CCCC1)C(C)(C)C)C(=O)NS(=O)(=O)C1CC1` (stereo partly shown) [Compound 30aq], the IC50 under setting [1] is less than 30 nM.

`CC(C)(C)OC(=O)N[C@H]1CCCCC/C=C\[C@@H]2C[C@@]2(C(=O)NS(=O)(=O)C2CC2)NC(=O)[C@@H]2C[C@@H](OC(=O)N3Cc4cccc(F)c4C3)CN2C1=O` [Compound 12-Ref, reference compound]: under setting [1], the IC50 is less than 30 nM.

For `CC[C@H]1C[C@@]1(NC(=O)C1C[C@@H](OC(=O)N2Cc3cc4c(cc3C2)OCO4)CN1C(=O)[C@@H](NC(=O)[C@@H](NS(=O)(=O)c1cccc2ccccc12)C1CCCCC1)C(C)(C)C)C(=O)NS(=O)(=O)C1CC1` (stereo partly shown) [Compound 30p], the IC50 under setting [1] was less than 30 nM.

Consider `CC[C@H]1C[C@@]1(NC(=O)C1C[C@@H](OC(=O)N2Cc3cc4c(cc3C2)OCO4)CN1C(=O)[C@@H](NC(=O)[C@@H](NS(=O)(=O)c1ccccc1)C1CCCCC1)C(C)(C)C)C(=O)NS(=O)(=O)C1CC1` (stereo partly shown) [Compound 30r], for which the IC50 under setting [1] was less than 30 nM.

In turn, `CCC[C@H](NC(=O)C1C[C@@H](OC(=O)N2Cc3ccc4c(c3C2)OCO4)CN1C(=O)[C@@H](NC(=O)[C@@H](NC(=O)c1cnccn1)C1CCCCC1)C(C)(C)C)C(=O)C(=O)NC1CC1` (stereo partly shown) [Compound 33c] registered an IC50 of 30 to 200 nM.

In the case of `O=C1N[C@]2(C(=O)NS(=O)(=O)C3CC3)C[C@H]2/C=C\CCCCCN(C2CC2)C(=O)C2C[C@H](OC(=O)N3Cc4cc5c(cc4C3)OCO5)C[C@@H]12` (stereo partly shown) [Compound 21b], the IC50 under setting [1] lay in the range of 30 to 200 nM.

For `O=C1N[C@]2(C(=O)NS(=O)(=O)C3CC3)C[C@H]2/C=C\CCCCC[C@H](NS(=O)(=O)c2ccc(Cl)cc2)C(=O)N2C[C@H](OC(=O)N3Cc4cc5c(cc4C3)OCO5)C[C@@H]12` [Compound 16a], the IC50 under setting [1] was less than 30 nM.

For the compound `O=C1N[C@]2(C(=O)NS(=O)(=O)C3CC3)C[C@H]2/C=C\CCCCCN(C2CC2)C(=O)N2CC(OC(=O)N3Cc4cccc(F)c4C3)C[C@@H]12` (stereo partly shown) [Compound 27-Ref-2, reference compound], the IC50 under setting [1] lay within 30 to 200 nM.

For `CC[C@H]1C[C@@]1(NC(=O)C1C[C@@H](OC(=O)N2Cc3cc4c(cc3C2)OCO4)CN1C(=O)[C@@H](NC(=O)[C@@H](NC(=O)OC1CCCC1)C1CCCCC1)C(C)(C)C)C(=O)NS(=O)(=O)C1CC1` (stereo partly shown) [Compound 30t], the IC50 is less than 30 nM.

`CC[C@H]1C[C@@]1(NC(=O)C1C[C@@H](OC(=O)N2Cc3cc4c(cc3C2)OCCCO4)CN1C(=O)[C@@H](NC(=O)[C@@H](NC(=O)c1cnccn1)C1CCCCC1)C(C)(C)C)C(=O)NS(=O)(=O)C1CC1` (stereo partly shown) [Compound 30h]: the IC50 is less than 30 nM.

For `O=C(N[C@H]1CCCCC/C=C\[C@@H]2C[C@@]2(C(=O)NS(=O)(=O)C2CC2)NC(=O)[C@@H]2C[C@@H](OC(=O)N3Cc4cc5c(cc4C3)OCO5)CN2C1=O)OC1CCCC1` [Compound 12r], the IC50 under setting [1] was less than 30 nM.

As for `COc1ccc(S(=O)(=O)N[C@H]2CCCCC/C=C\[C@@H]3C[C@@]3(C(=O)NS(=O)(=O)C3CC3)NC(=O)[C@@H]3C[C@@H](OC(=O)N4Cc5cc6c(cc5C4)OCO6)CN3C2=O)cc1` [Compound 16c], the IC50 under setting [1] was less than 30 nM.

Take `CC(C)S(=O)(=O)NC(=O)[C@@]12C[C@H]1/C=C\CCCCC[C@H](NC(=O)OC(C)(C)C)C(=O)N1C[C@H](OC(=O)N3Cc4ccc5c(c4C3)OCO5)C[C@H]1C(=O)N2` [Compound 12e]: the IC50 under setting [1] is less than 30 nM.

Consider `CC[C@H]1C[C@@]1(NC(=O)C1C[C@@H](OC(=O)N2Cc3cc4c(cc3C2)OCO4)CN1C(=O)[C@@H](NC(=O)[C@@H](NS(C)(=O)=O)C1CCCCC1)C(C)(C)C)C(=O)NS(=O)(=O)C1CC1` (stereo partly shown) [Compound 30n], for which, under setting [1], the IC50 is less than 30 nM.

`CCC[C@H](NC(=O)C1C[C@@H](OC(=O)N2Cc3cc4c(cc3C2)OCO4)CN1C(=O)[C@@H](NC(=O)[C@@H](NC(=O)c1cnccn1)C1CCCCC1)C(C)(C)C)C(=O)C(=O)NC1CC1` (stereo partly shown) [Compound 33a] had an IC50 of 30 to 200 nM.

`CC[C@H]1C[C@@]1(NC(=O)C1C[C@@H](OC(=O)N2Cc3cc4c(cc3C2)OCO4)CN1C(=O)[C@@H](NC(=O)[C@@H](NC(=O)OC(C)C)C1CCCCC1)C(C)(C)C)C(=O)NS(=O)(=O)C1CC1` (stereo partly shown) [Compound 30w] yielded an IC50 of less than 30 nM.

Regarding `CN1CCCCC/C=C\[C@@H]2C[C@@]2(C(=O)NS(=O)(=O)C2CC2)NC(=O)[C@@H]2CC(OC(=O)N3Cc4cccc(F)c4C3)CN2C1=O` (stereo partly shown) [Compound 27-Ref, reference compound], the IC50 under setting [1] was 30 to 200 nM.

In turn, `CC[C@H]1C[C@@]1(NC(=O)C1C[C@@H](OC(=O)N2Cc3cc4c(cc3C2)OCO4)CN1C(=O)[C@@H](NC(=O)[C@@H](NC(=O)c1cnccn1)C1CCCCC1)C(C)(C)C)C(=O)NS(=O)(=O)C1CC1` (stereo partly shown) [Compound 30b] had an IC50 of less than 30 nM.

As to `O=C1N[C@]2(C(=O)NS(=O)(=O)C3CC3)C[C@H]2/C=C\CCCCN(C2CC2)C(=O)C2C[C@H](OC(=O)N3Cc4ccc5c(c4C3)OCO5)C[C@@H]12` (stereo partly shown) [Compound 21f], the IC50 under setting [1] lay within 30 to 200 nM.

`CC(C)(C)OC(=O)N[C@H]1CCCCC/C=C\[C@@H]2C[C@@]2(C(=O)NS(=O)(=O)C2CC2)NC(=O)[C@@H]2C[C@@H](OC(=O)N3Cc4cc5c(cc4C3)OCCCO5)CN2C1=O` [Compound 12p]: the IC50 under setting [1] is less than 30 nM.

As to `CC(C)OC(=O)N[C@H]1CCCCC/C=C\[C@@H]2C[C@@]2(C(=O)NS(=O)(=O)C2CC2)NC(=O)[C@@H]2C[C@@H](OC(=O)N3Cc4cc5c(cc4C3)OCO5)CN2C1=O` [Compound 12q], under setting [1], the IC50 was less than 30 nM.

On to `CCC[C@H](NC(=O)C1C[C@@H](OC(=O)N2Cc3cc4c(cc3C2)OCCO4)CN1C(=O)[C@@H](NC(=O)[C@@H](NC(=O)c1cnccn1)C1CCCCC1)C(C)(C)C)C(=O)C(=O)NC1CC1` (stereo partly shown) [Compound 33b], for which the IC50 lay in the range of 30 to 200 nM.

Turning to `C=C[C@H]1C[C@@]1(NC(=O)C1C[C@@H](OC(=O)N2Cc3ccc4c(c3C2)OCO4)CN1C(=O)[C@@H](NC(=O)OC1CCCC1)C(C)(C)C)C(=O)NS(=O)(=O)C1CC1` (stereo partly shown) [Compound 30an], the IC50 under setting [1] was less than 30 nM.

Consider `O=C1N[C@]2(C(=O)NS(=O)(=O)C3CC3)C[C@H]2/C=C\CCCCN(C2CC2)C(=O)C2C[C@H](OC(=O)N3Cc4cc5c(cc4C3)OCO5)C[C@@H]12` (stereo partly shown) [Compound 21a], for which the IC50 under setting [1] lay within 30 to 200 nM.

As for `C=C[C@H]1C[C@@]1(NC(=O)C1C[C@@H](OC(=O)N2Cc3cc4c(cc3C2)OCO4)CN1C(=O)[C@@H](NC(=O)OC1CCCC1)C(C)(C)C)C(=O)NS(=O)(=O)C1CC1` (stereo partly shown) [Compound 30ak], under setting [1], the IC50 is less than 30 nM.

`CC[C@H]1C[C@@]1(NC(=O)C1C[C@@H](OC(=O)N2Cc3ccc4c(c3C2)OCO4)CN1C(=O)[C@@H](NC(=O)[C@@H](NC(=O)c1cnccn1)C1CCCCC1)C(C)(C)C)C(=O)NS(=O)(=O)C1CC1` (stereo partly shown) [Compound 30f] returned a 50% inhibitory concentration (IC50) of less than 30 nM.

For `CC(C)(C)OC(=O)N[C@H]1CCCCC/C=C\[C@@H]2C[C@@]2(C(=O)NS(=O)(=O)C2CC2)NC(=O)[C@@H]2C[C@@H](OC(=O)N3Cc4ccc5c(c4C3)OCCCO5)CN2C1=O` [Compound 12n], under setting [1], the IC50 is less than 30 nM.

As for `O=C1N[C@]2(C(=O)NS(=O)(=O)C3CC3)C[C@H]2/C=C\CCCCC[C@H](NS(=O)(=O)c2ccccc2)C(=O)N2C[C@H](OC(=O)N3Cc4cc5c(cc4C3)OCO5)C[C@@H]12` [Compound 16b], the IC50 under setting [1] is less than 30 nM.

For the compound `CC(C)(C)OC(=O)N([C@H]1CCCCC/C=C\[C@@H]2C[C@@]2(C(=O)NS(=O)(=O)C2CC2)NC(=O)[C@@H]2C[C@@H](OC(=O)N3Cc4cc5c(cc4C3)OCO5)CN2C1=O)S(C)(=O)=O` [Compound 12s], the IC50 under setting [1] was less than 30 nM.

The values above are taken from patent US8815796B2, “Polyheterocyclic compounds highly potent as HCV inhibitors” (AB Pharma Ltd., priority 2010, dated 2014).
